Measured values from patent US6908945B2, “Ester compound and its use” (Sumitomo Chemical Company, Limited, priority 2002, dated 2005).

Experiments:
Adult houseflies = test: Knock-down test, oil solution sprayed into cubic chamber, adult houseflies; assay type: in vivo; conditions: 70 cm cubic chamber, 5 male and 5 female adult houseflies, counted for 10 minutes; for time for knocking down half of the tested insects (KT50): 0.7 ml of 0.00625% oil solution sprayed, two repetitions
From the text: A solution of 0.025 part of the present compound prepared by the production example mentioned above dissolved with 10 parts of dichloromethane was mixed with 89.9975 parts of deodorized kerosene to give a […] oil solution.
(§1) Adult houseflies (5 males and 5 females) were left in a cubic chamber (70 cm at side). Seven-tenths (0.7) ml of the 0.025% oil solution of the present compound prepared above was sprayed with a spray gun at a pressure of 8.8×10^4 Pa from a small window on the side of the chamber. Then, the number of the knocked-down insects was counted at times for 10 minutes. The time for knocking down half of the tested insects was 1.0 minute.
A solution of 0.00625 part of the present compound prepared by the production example mentioned above dissolved with 10 parts of dichloromethane was mixed with 89.99375 parts of deodorized kerosene to give a 0.00625% oil solution.
Adult houseflies (5 males and 5 females) were left in a cubic chamber (70 cm at side). Seven-tenths (0.7) ml of the 0.00625% oil solution of the present compound prepared above was sprayed with a spray gun at a pressure of 8.8×10^4 Pa from a small window on the side of the chamber. Then, the number of the knocked-down insects was counted at times for 10 minutes (two repetitions). The time for knocking down half of the tested insects (KT50) was observed. The KT50 value was 1.1 minutes.
The same test except that 4-methoxymethy-2,3,5,6-tetrafluorobenzyl (1R,trans)-3-(2-fluoro-1-propenyl)-2,2-dimethylcyclopropanecarboxylate, which is a compound of Example 12 of WO 99/32426, was used in place of the present compound was performed for reference. The KT50 value was 5.0 minutes.

[1] = test system: female common mosquitoes (Culex pipiens pallens); test: Knock-down test, oil solution sprayed into cubic chamber, common mosquitoes; assay type: in vivo; conditions: 0.7 ml of 0.00625% oil solution sprayed, 70 cm cubic chamber, ten female Culex pipiens pallens, counted for 10 minutes
From the text: A solution of 0.00625 part of the present compound (1R,cis-E) dissolved with 10 parts of dichloromethane was mixed with 89.99375 parts of deodorized kerosene to give a […] oil solution.
as §1, with “Ten female common mosquitoes (Culex pipiens pallens)” for “Adult houseflies (5 males and 5 females)”, “0.00625%” for “0.025%”, “1.3” for “1.0”
The same test except that 3-phenoxybenzyl (1R,cis)-3-((E)-2-cyano-1-propenyl)-2,2-dimethylcyclopropanecarboxylate, which is a compound described in Indian Patent No. 152306, was used in place of the present compound was performed for reference. The KT50 value was 8.0 minutes.

Structure (SMILES) | time for knocking down half of the tested insects (KT50) (Adult houseflies) [min] | time for knocking down half of the tested insects (Adult houseflies; 0.7 ml of 0.025% oil solution sprayed) [min] | time for knocking down half of the tested insects (KT50) [1] [min]
COCc1c(F)c(F)c(COC(=O)C2C(C=C(C)C#N)C2(C)C)c(F)c1F (centres unmarked) [present compound, 4-methoxymethy-2,3,5,6-tetrafluorobenzyl 3-(2-cyano-1-propenyl)-2,2-dimethylcyclopropanecarboxylate] | 1.1 | 1.0 | –
COCc1c(F)c(F)c(COC(=O)C2C(C=C(C)C#N)C2(C)C)c(F)c1F [present compound (1R,cis-E)] | – | – | 1.3
COCc1c(F)c(F)c(COC(=O)[C@@H]2[C@H](C=C(C)F)C2(C)C)c(F)c1F (relative stereo) [Example 12 of WO 99/32426, 4-methoxymethy-2,3,5,6-tetrafluorobenzyl (1R,trans)-3-(2-fluoro-1-propenyl)-2,2-dimethylcyclopropanecarboxylate, reference compound] | 5.0 | – | –
C/C(C#N)=C\[C@H]1[C@@H](C(=O)OCc2cccc(Oc3ccccc3)c2)C1(C)C (relative stereo) [3-phenoxybenzyl (1R,cis)-3-((E)-2-cyano-1-propenyl)-2,2-dimethylcyclopropanecarboxylate, reference compound] | – | – | 8.0
